Several values for one entry are separate records, joined by “and”; a condition that tells them apart may be missing. Equal values may be shown once. Where a name gives a salt, the structure may show the parent alone. Read-outs that look alike come from different tables or passages of the source.
How the values were obtained:
recombinant human AChE [1] = molecular target: T1, recombinant human AChE (Homo sapiens, UniProt P22303); assay: biochemical
recombinant human AChE [2] = molecular target: T1, recombinant human AChE
AChE in SH-SY5Y cells = AChE in SH-SY5Y cells (Homo sapiens, UniProt P22303); assay: cell-based
AChE in SH-SY5Y cells, sequence (P22303 32-614): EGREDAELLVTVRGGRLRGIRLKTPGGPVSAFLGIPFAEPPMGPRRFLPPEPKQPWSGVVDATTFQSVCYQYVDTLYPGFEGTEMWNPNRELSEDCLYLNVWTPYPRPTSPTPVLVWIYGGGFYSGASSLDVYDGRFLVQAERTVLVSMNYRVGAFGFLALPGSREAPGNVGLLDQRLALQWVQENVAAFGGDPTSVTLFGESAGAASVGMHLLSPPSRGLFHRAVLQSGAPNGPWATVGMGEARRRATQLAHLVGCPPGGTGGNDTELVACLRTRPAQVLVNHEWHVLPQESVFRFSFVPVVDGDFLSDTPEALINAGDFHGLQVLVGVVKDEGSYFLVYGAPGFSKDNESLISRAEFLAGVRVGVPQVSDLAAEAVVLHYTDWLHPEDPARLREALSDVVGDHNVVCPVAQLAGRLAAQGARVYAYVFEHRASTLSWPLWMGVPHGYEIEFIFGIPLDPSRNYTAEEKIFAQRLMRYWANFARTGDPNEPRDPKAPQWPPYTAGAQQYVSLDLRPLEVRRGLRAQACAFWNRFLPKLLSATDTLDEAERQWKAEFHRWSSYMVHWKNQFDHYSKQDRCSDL

T1 sequence (P22303 32-614): as above

Row | SMILES | CC-v2 (curve classes) (recombinant human AChE [1]) | Efficacy (recombinant human AChE [1]) | IC50 (recombinant human AChE [1]; IC50 (uM)) | CC-v2 (curve classes) (recombinant human AChE [2]) | Efficacy (recombinant human AChE [2]) | CC-v2 (curve classes) (AChE in SH-SY5Y cells) | IC50 (AChE in SH-SY5Y cells; IC50 (uM)) | IC50 (recombinant human AChE [1]; read-out: IC50) | IC50 (recombinant human AChE [2]) | IC50 (AChE in SH-SY5Y cells; read-out: IC50)
1 | CCCCCC1Nc2cc(C(F)(F)F)c(S(N)(=O)=O)cc2S(=O)(=O)N1 (stereo not drawn) [Penflutizide] | -2.2 | -58.761 | 21.9 µM | 4 | -21.532 | -2.1 | 15.5 µM and 13.8 µM |  |  | 
2 | CCOP(=S)(OCC)SCSCC [Phorate] | 4 | -23.652 |  | 4 | 0 | -2.1 | 63.3 µM and 71 µM |  |  | 
3 | Nc1c(NC/C=C\COc2cc(CN3CCCCC3)ccn2)c(=O)c1=O [Pibutidine] | -2.2 | -32.846 | 15.1 µM | 4 | 0 | -2.1 | 13.5 µM and 15.1 µM |  |  | 
4 | Cc1nc2ccccn2c(=O)c1CCN1CCC(C(=O)c2ccc(F)cc2)CC1 [Pirenperone] | -2.4 | -31.06 | 38.9 µM | 4 | 0 | -2.1 | 17.4 µM and 24.5 µM |  |  | 
5 | O=S(=O)([O-])SSS(=O)(=O)[O-].[K+].[K+] [Potassium tetrathionate] | -2.2 | -73.38 |  | -2.1 | -82.524 | -2.1 |  | 71 µM | 71 µM | 71 µM and 79.6 µM
6 | CCCN[C@H]1CCc2nc(N)sc2C1 [Pramipexole dihydrochloride monohydrate] | 4 | -20.242 |  | 4 | -16.414 | -2.1 |  |  |  | 
7 | COc1cc2nc(N3CCN(C(=O)c4ccco4)CC3)nc(N)c2cc1OC [Prazosin] |  | -14.406 |  |  | 0 |  | 15.1 µM and 16.9 µM and 9.52 µM |  |  | 
8 | CC(C)Nc1nc(Cl)nc(NC(C)C)n1 [Propazine] | -2.2 and 4 |  | 71 µM | 4 | 0 | -2.1 and 4 | 31.7 µM and 25.2 µM and 28.3 µM |  |  | 
9 | COCCCN1CCC(NC(=O)c2cc(Cl)c(N)c3c2OCC3)CC1 [Prucalopride] | -2.4 | -37.421 |  | 4 | 0 | -2.1 | 17.4 µM |  |  | 
10 | CN1CCCN=C1/C=C/c1cccs1.O=C(O)C(O)C(O)C(=O)O [Pyrantel tartrate] | -2.4 | -36.527 |  | 4 | 0 | -2.1 |  | 38.9 µM |  | 30.9 µM and 27.5 µM and 15.5 µM
11 | COCCCOc1ccnc(C[S+]([O-])c2nc3ccccc3[nH]2)c1C (stereo not drawn) [Rabeprazole sodium] | 4 | -15.052 |  | 1.1 | 92.667 | -2.1 and -2.2 | 63.1 µM and 70.7 µM |  |  | 
12 | Cc1nc2n(c(=O)c1CCN1CCC(c3noc4cc(F)ccc34)CC1)CCCC2 [Risperidone] | 4 | -13.373 |  | 4 | 0 | -1.1 and -2.1 |  |  |  | 
13 | CCCN(CCc1cccs1)[C@H]1CCc2c(O)cccc2C1 [Rotigotine] | -2.2 | -40.728 | 34.7 µM | 4 | 0 | -2.1 | 15.5 µM and 13.8 µM |  |  | 
14 | C[n+]1cc2c3c(ccc2c2ccc4cc5c(cc4c21)OCO5)OCO3 [Sanguinarine] | -2.2 | -68.744 | 16.9 µM | 4 | -7.894 | -2.1 | 15.1 µM and 12 µM and 10.7 µM |  |  | 
15 | COc1cc2nc(N3CCN(C(=O)C4CCCO4)CC3)nc(N)c2cc1OC (stereo not drawn) [Terazosin hydrochloride] | -2.2 | -49.646 | 38.9 µM | 4 | 0 |  | 30.9 µM and 27.5 µM |  |  | 
16 | CCCCCCCCCCCCCC[n+]1ccccc1 [Tetradecylpyridinium bromide] | -2.1 | -102.568 | 56.4 µM | 4 | 0 | -1.1 and -2.1 | 31.7 µM and 39.9 µM |  |  | 
17 | CN(C)C(=S)SC(=S)N(C)C [Tetramethylthiuram monosulfide] | 4 |  |  | 4 |  |  | 31.7 µM and 72.8 µM and 63.3 µM and 56.4 µM |  |  | 
18 | CN(C)C(=S)SSC(=S)N(C)C [Thiram] | 4 |  |  | 4 |  |  | 38.9 µM and 88.1 µM and 78.5 µM and 89.4 µM and 71 µM |  |  | 
19 | COc1cc(C(=O)NCc2ccc(OCCN(C)C)cc2)cc(OC)c1OC [Trimethobenzamide hydrochloride] | -1.1 | -75.922 |  | 4 | -14.276 | -2.1 and -1.1 |  |  |  | 
